Solubility and inhibition data for eleven compounds are collected here from ChEMBL document CHEMBL1921729, “A small nonrule of 3 compatible fragment library provides high hit rate of endothiapepsin crystal structures with various fragment chemotypes” (J Med Chem, 2011).

Series [1] can be described thus: Solubility of the compound in aqueous buffer at pH 7.4 by UV spectrophotometry. The series is classed as physicochemical.
Series [2] concerns the target T1, Endothiapepsin (Cryphonectria parasitica) (UniProt P11838).
T1 sequence (whole entry): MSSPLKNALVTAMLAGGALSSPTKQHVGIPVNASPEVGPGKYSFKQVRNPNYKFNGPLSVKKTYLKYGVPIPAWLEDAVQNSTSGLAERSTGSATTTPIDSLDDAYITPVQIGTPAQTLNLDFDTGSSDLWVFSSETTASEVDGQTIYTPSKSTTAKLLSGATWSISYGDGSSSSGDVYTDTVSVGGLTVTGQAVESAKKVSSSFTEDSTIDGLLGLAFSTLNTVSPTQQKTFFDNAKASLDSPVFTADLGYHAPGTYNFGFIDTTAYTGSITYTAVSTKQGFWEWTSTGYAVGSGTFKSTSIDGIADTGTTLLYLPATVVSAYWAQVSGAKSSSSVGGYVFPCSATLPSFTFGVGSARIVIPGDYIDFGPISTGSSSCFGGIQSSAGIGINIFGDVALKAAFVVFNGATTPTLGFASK
Nature of the series: Inhibition of Cryphonectria parasitica endothiapepsin using Abz-Thr-Ile-Nle-p-nitro-Phe-Gln-Arg-NH2 as substrate at 1 mM by fluorescence spectrophotometry analysis.

Broadly, the solubility is the concentration that dissolves in the medium under given conditions. Higher therefore signals much dissolved substance. As usually defined, the inhibition is how much of the control response was suppressed. For the compound `OC(COCc1ccccc1F)CN1CCCC1` (configuration not stated), the solubility in series [1] was > 1500 µM. The compound also displayed an inhibition in series [2] of 87%.
Taken in the same sequence, the figures for `CCN(CC)c1ccc(C(=O)NN)cc1` were > 1500 µM and 89%.
The matching figures for `CNCc1ccc(Oc2cccnc2)o1`: > 1500 µM and 66%.
The matching figures for `N=C(N)SCc1ccccc1Cl`: > 1500 µM and 93%.
As for `O=C(CN1CCCCC1)Nc1ccc2c(c1)OCO2`, the solubility in series [1] was > 1500 µM. Moreover, the inhibition in series [2] came to 49%.
Consider `NC1=NCc2ccccc21`, for which, in series [1], the solubility was > 1500 µM. In series [2], this compound yielded an inhibition of 89%.
Regarding `N=C(N)c1ccc(C(F)(F)F)cc1`, in series [1], the solubility is > 1500 µM. For the same compound, the inhibition in series [2] stood at 45%.
Taken in the same sequence, the figures for `O=C(Cc1ccccc1)Nn1cnc2ccccc21` were > 1500 µM and 51%.
Take `N=C(N)SCc1ccc(Cl)cc1`: the solubility in series [1] was > 1500 µM. Also, the inhibition in series [2] was determined as 84%.
The matching figures for `O=C(Cc1cn2ccccc2n1)Nc1ccccc1`: > 1500 µM and 84%.
Taken in the same sequence, the figures for `c1cc(CNc2ccc3c(c2)OCCO3)ccn1` were > 1500 µM and 50%.
